Measured values as given in patent US10934304B2, “Spirocyclic compounds” (Recurium IP Holdings, LLC, priority 2016, dated 2021).

Tests used:
ERK2 = ERK2 (Homo sapiens (Human), UniProt P28482); assay: Active ERK1 and ERK2 Kinase Assay (Mobility Shift Assay); format: biochemical; details: activated ERK2, Mobility Shift Assay
Experimental: Activated ERK1 and ERK2 activity was determined in a Mobility Shift Assay (MSA) format as follows: Compound and kinase solution were prepared with assay buffer (20 mM HEPES, 0.01% Triton X-100, 2 mM DTT, pH7.5) and mixed and incubated in for 30 mins at rt. ERK1 & ERK2 were then activated by the addition of F1-Substrate, ATP and metal solution and incubated for 1 h at rt. After 1 h, the reaction was terminated by the addition of […] of Termination Buffer (QuickScout Screening Assist MSA; Carna Biosciences) to the well. The reaction mixture was applied to LabChip™ system (PerkinElmer), and the product and substrate peptide peaks were separated, analyzed and quantitated. The kinase reaction is evaluated by the product ratio calculated from peak heights of product (P) and substrate(S) peptides (P/(P+S)).

A375 (melanoma) cells = assay: Proliferation Assay (CellTiter-Glo); format: cell-based; details: 3 days incubation, CellTiter-Glo luminescence
Experimental: A375 (melanoma), Colo-205 (colon cancer), Miapaca (pancreatic), HPAFII (pancreatic), sNF02.0 (neurofibromatosis type 1), sNF96.2 (neurofibromatosis type 1) and 8505 (Thyroid) cells were grown and maintained in RPMI-1640 medium containing 100 U/mL penicillin-streptomycin and 10% fetal bovine serum. Cells were in growth medium in 96-well opaque-walled clear bottom plates and incubated in the CO2 incubator overnight before treatment. Cells were treated with compounds diluted in DMSO and a 10 point 3-fold serial dilutions were done. Plates were placed in 37° C., 5% CO2 to incubate for 3 days. Before they were developed by adding 100 μL of CellTiter-Glo reagent (Promega) to the assay plate, plates were shaken briefly for 2 mins and allowed to incubate at room temperature for 10 mins. The bottom of the plates was pasted with white back seal and luminescence was recorded with Flexstation3 with setting of luminescence, integration time 500 ms.
Compounds of Formula (I), (II) and (III) are active in this assay as noted in Table 2.

ERK2, sequence (P28482 whole entry): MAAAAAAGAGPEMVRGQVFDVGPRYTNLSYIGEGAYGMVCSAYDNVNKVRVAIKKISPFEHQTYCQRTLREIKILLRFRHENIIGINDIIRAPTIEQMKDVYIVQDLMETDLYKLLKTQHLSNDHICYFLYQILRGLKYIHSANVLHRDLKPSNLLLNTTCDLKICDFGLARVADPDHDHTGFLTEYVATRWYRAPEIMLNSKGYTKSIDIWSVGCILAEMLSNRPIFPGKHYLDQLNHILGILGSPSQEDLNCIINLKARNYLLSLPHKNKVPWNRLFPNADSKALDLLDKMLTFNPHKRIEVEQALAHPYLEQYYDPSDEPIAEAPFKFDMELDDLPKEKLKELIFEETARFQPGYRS

| SMILES | IC50 (ERK2) [nM] | IC50 (A375 (melanoma) cells) [nM] | IC50 (A375 (melanoma) cells; Homo sapiens, A-375, 72 h) [nM] |
| --- | --- | --- | --- |
| COc1ccc(-c2n[nH]c3ccc(N4CC[C@]5(CCN(CC(=O)N6CC=C(c7ccc(-c8ncn(C)n8)cc7)CC6)C5)C4=O)cc23)nc1 [Example 60] | ≤ 50 | ≤ 500 |  |
| Cn1nc(-c2ccc(C3=CCN(C(=O)CN4CCC5(CCN(c6ccc7[nH]nc(C8CCOCC8)c7n6)C5=O)C4)CC3)cc2)oc1=O (stereo not drawn) [Example 23] | ≤ 50 | ≤ 500 |  |
| Cn1cnc(-c2ccc(C3=CCN(C(=O)CN4CC[C@]5(CCN(c6ccc7[nH]nc(C8=CCOCC8)c7n6)C5=O)C4)CC3)cc2)n1 [Example 26] | ≤ 50 |  | ≤ 500 |
| CNC(=O)c1cc(-c2n[nH]c3ccc(N4CC[C@]5(CCN(CC(=O)N6CC=C(c7ccc(-c8nn(C)c(=O)o8)cc7)CC6)C5)C4=O)cc23)ccc1F [Example 16] | ≤ 50 | ≤ 500 |  |
| COc1ccc(-c2n[nH]c3ccc(N4CC[C@]5(CCN(CC(=O)N6CC=C(c7ccc(-c8nn(C)c(=O)o8)cc7)CC6)C5)C4=O)cc23)cn1 [Example 19] | ≤ 50 | ≤ 500 |  |
| Cn1cnc(-c2ccc(C3=CCN(C(=O)CN4CC[C@]5(CCN(c6ccc7[nH]nc(-c8ccc(F)cn8)c7c6)C5=O)C4)CC3)cc2)n1 [Example 28, (S)-2-(3-(5-Fluoropyridin-2-yl)-1H-indazol-5-yl)-7-(2-(4-(4-(1-methyl-1H-1,2,4-triazol-3-yl)phenyl)-5,6-dihydropyridin-1(2H)-yl)-2-oxoethyl)-2,7-diazaspiro[4.4]nonan-1-one] | ≤ 50 |  | ≤ 500 |
| Cc1ccc(-c2n[nH]c3ccc(N4CC[C@]5(CCN(CC(=O)N6CCC(c7ncc(-c8ncn(C)n8)s7)CC6)C5)C4=O)nc23)cn1 [Example 80] | ≤ 50 |  | ≤ 500 |
| CC(C)Oc1ccc(-c2n[nH]c3ccc(N4CC[C@]5(CCN(CC(=O)N6CC=C(c7ccc(-c8ncn(C)n8)cc7)CC6)C5)C4=O)c(F)c23)cn1 [Example 1, (S)-2-(4-Fluoro-3-(6-isopropoxypyridin-3-yl)-1H-indazol-5-yl)-7-(2-(4-(4-(1-methyl-1H-1,2,4-triazol-3-yl)phenyl)-5,6-dihydropyridin-1(2H)-yl)-2-oxoethyl)-2,7-diazaspiro[4.4]nonan-1-one] | ≥ 250 |  | ≥ 1000 |
| Cn1cnc(-c2ccc(C3=CCN(C(=O)CN4CC[C@]5(CCN(c6ccc7[nH]nc(-c8cnn(C)n8)c7n6)C5=O)C4)CC3)cc2)n1 [Example 59] | ≤ 50 | 500 to 1000 |  |
| Cn1cnc(-c2ccc(C3=CCN(C(=O)CN4CC[C@]5(CCN(c6ccc7[nH]nc(N8CCC9(CC8)COC9)c7n6)C5=O)C4)CC3)cc2)n1 [Example 42, (S)-2-(3-(2-oxa-7-azaspiro[3.5]nonan-7-yl)-1H-pyrazolo[4,3-b]pyridin-5-yl)-7-(2-(4-(4-(1-methyl-1H-1,2,4-triazol-3-yl)phenyl)-3,6-dihydropyridin-1(2H)-yl)-2-oxoethyl)-2,7-diazaspiro[4.4]nonan-1-one] | ≥ 250 |  | ≥ 1000 |
| CC(C)Oc1ccc(-c2n[nH]c3ccc(N4CC[C@]5(CCN(CC(=O)N6CCN(c7ccc(-c8ncn(C)n8)cn7)CC6)C5)C4=O)nc23)cn1 [Example 84] | ≤ 50 | ≤ 500 |  |
| Cn1nc(-c2ccc(C3=CCN(C(=O)CN4CC[C@]5(CCN(c6ccc7[nH]nc(-c8ccc(C#N)c(C(F)(F)F)c8)c7c6)C5=O)C4)CC3)cc2)oc1=O [Example 15] | ≤ 50 | 500 to 1000 |  |
| CC(C)n1cc(-c2n[nH]c3ccc(N4CC[C@]5(CCN(CC(=O)N6CCN(c7ccc(-c8ncn(C)n8)cc7)CC6)C5)C4=O)nc23)cn1 [Example 41] | ≤ 50 | ≤ 500 |  |
| CC(C)Sc1ccc(-c2n[nH]c3ccc(N4CC[C@]5(CCN(CC(=O)N6CC=C(c7ccc(-c8ncn(C)n8)cc7)CC6)C5)C4=O)nc23)cn1 [Example 76] | ≤ 50 | ≤ 500 |  |
| CC(C)c1nc2cc(-c3n[nH]c4ccc(N5CC[C@]6(CCN(CC(=O)N7CC=C(c8ccc(-c9ncn(C)n9)cc8)CC7)C6)C5=O)nc34)ccc2o1 [Example 91] | ≤ 50 | 500 to 1000 |  |
| Cn1cnc(-c2ccc(N3CCN(C(=O)CN4CC[C@]5(CCN(c6ccc7[nH]nc(-c8ccc(F)cn8)c7c6)C5=O)C4)CC3)cc2)n1 [Example 56] | ≤ 50 | ≤ 500 |  |
| Cn1cnc(-c2ccc(C3=CCN(C(=O)CN4CC[C@]5(CCN(c6ccc7[nH]nc(-c8ccc(OC9CCC9)nc8)c7n6)C5=O)C4)CC3)cc2)n1 [Example 77] | ≤ 50 | ≤ 500 |  |

| SMILES | IC50 (ERK2) [nM] | IC50 (A375 (melanoma) cells) [nM] | IC50 (A375 (melanoma) cells; Homo sapiens, A-375, 72 h) [nM] |
| --- | --- | --- | --- |
| C[C@@H]1CN(c2n[nH]c3ccc(N4CC[C@]5(CCN(CC(=O)N6CC=C(c7ccc(-c8ncn(C)n8)cc7)CC6)C5)C4=O)nc23)C[C@H](C)O1 [Example 48] | ≤ 50 | 500 to 1000 |  |
| Cn1cnc(-c2ccc(C3=CCN(C(=O)CN4CC[C@]5(CCN(c6ccc7[nH]nc(N8CCC(F)(F)CC8)c7c6)C5=O)C4)CC3)cc2)n1 [Example 3, (S)-2-(3-(4,4-difluoropiperidin-1-yl)-1H-indazol-5-yl)-7-(2-(4-(4-(1-methyl-1H-1,2,4-triazol-3-yl)phenyl)-5,6-dihydropyridin-1 (2H)-yl)-2-oxoethyl)-2,7-diazaspiro[4.4]nonan-1-one] | ≤ 50 |  | 500 to 1000 |
| CC(C)n1cc(-c2n[nH]c3ccc(N4CC[C@]5(CCN(CC(=O)N6CC=C(c7ccc(-c8ncn(C)n8)cc7)CC6)C5)C4=O)nc23)cn1 [Example 40] | ≤ 50 |  | ≤ 500 |
| CC(C)Oc1ccc(-c2n[nH]c3ccc(N4CC[C@]5(CCN(CC(=O)N6CCC(c7ccc(-c8ncn(C)n8)cc7)CC6)C5)C4=O)nc23)cn1 [Example 71] | ≤ 50 | 500 to 1000 |  |
| Cc1ccc(-c2n[nH]c3ccc(N4CC[C@]5(CCN(CC(=O)N6CCC(c7ccc(-c8ncn(C)n8)cc7)CC6)C5)C4=O)nc23)cn1 [Example 79] | ≤ 50 | ≤ 500 |  |
| Cc1ccc(-c2n[nH]c3ccc(N4CC[C@]5(CCN(CC(=O)N6CC=C(c7ncc(-c8ncn(C)n8)s7)CC6)C5)C4=O)nc23)cn1 [Example 43] | ≤ 50 | ≤ 500 |  |
| CC(C)Oc1ccc(-c2n[nH]c3ccc(N4CC[C@]5(CCN(CC(=O)N6CC=C(c7ccc(-c8ncn(CCO)n8)cc7)CC6)C5)C4=O)nc23)cn1 [Example 89] | ≤ 50 | ≤ 500 |  |
| Cn1cnc(-c2ccc(C3=CCN(C(=O)CN4CC[C@]5(CCN(c6ccc7[nH]nc(-c8ccc(Cl)cc8F)c7n6)C5=O)C4)CC3)cc2)n1 [Example 69] | ≤ 50 | 500 to 1000 |  |
| CC(C)Oc1ccc(-c2n[nH]c3ccc(N4CC[C@]5(CCN(CC(=O)N6CC=C(c7ncc(-c8ncn(C)n8)s7)CC6)C5)C4=O)nc23)cn1 [Example 25] | ≤ 50 | ≤ 500 |  |
| Cn1cnc(-c2ccc(C3=CCN(C(=O)CN4CC[C@]5(CCN(c6ccc7[nH]nc(-c8cnn(C)n8)c7c6)C5=O)C4)CC3)cc2)n1 [Example 58, (S)-7-(2-(4-(4-(1-methyl-1H-1,2,4-triazol-3-yl)phenyl)-3,6-dihydropyridin-1(2H)-yl)-2-oxoethyl)-2-(3-(2-methyl-2H-1,2,3-triazol-4-yl)-1H-indazol-5-yl)-2,7-diazaspiro[4.4]nonan-1-one] | ≤ 50 |  | ≤ 500 |
| Cn1cnc(-c2ccc(C3=CCN(C(=O)CN4CC[C@]5(CCN(c6ccc7[nH]nc(N8CCCC8)c7c6)C5=O)C4)CC3)cc2)n1 [Example 11, (S)-7-(2-(4-(4-(1-Methyl-1H-1,2,4-triazol-3-yl)phenyl)-5,6-dihydropyridin-1(2H)-yl)-2-oxoethyl)-2-(3-(pyrrolidin-1-yl)-1H-indazol-5-yl)-2,7-diazaspiro[4.4]nonan-1-one] | ≤ 50 |  | ≥ 1000 |
| CNC(=O)c1ccc(-c2n[nH]c3ccc(N4CC[C@]5(CCN(CC(=O)N6CC=C(c7ccc(-c8ncn(C)n8)cc7)CC6)C5)C4=O)cc23)cn1 [Example 6] | ≤ 50 |  | ≤ 500 |
| Cc1cc(-c2n[nH]c3ccc(N4CC[C@]5(CCN(CC(=O)N6CCN(c7ccc(-c8ncn(C)n8)cn7)CC6)C5)C4=O)nc23)ccn1 [Example 44] | ≤ 50 | ≤ 500 |  |
| Cn1cnc(-c2ccc(C3=CCN(C(=O)CN4CC[C@]5(CCN(c6ccc7[nH]nc(C8CCS(=O)(=O)CC8)c7c6)C5=O)C4)CC3)cc2)n1 [Example 7, (S)-7-(2-(4-(4-(1-Methyl-1H-1,2,4-triazol-3-yl)phenyl)-5,6-dihydropyridin-1(2H)-yl)-2-oxoethyl)-2-(3-(tetrahydro-2H-thiopyran 1,1-dioxide-4-yl)-1H-indazol-5-yl)-2,7-diazaspiro[4.4]nonan-1-one] | ≤ 50 |  | ≥ 1000 |
| COc1ncc(-c2n[nH]c3ccc(N4CC[C@]5(CCN(CC(=O)N6CC=C(c7ccc(-c8ncn(C)n8)cc7)CC6)C5)C4=O)cc23)cc1C(F)(F)F [Example 8] | ≤ 50 |  | ≥ 1000 |
| Cn1cnc(-c2ccc(C3=CCN(C(=O)CN4CC[C@]5(CCN(c6ccc7[nH]nc(-c8ccc(F)cn8)c7n6)C5=O)C4)CC3)cc2)n1 [Example 50] | ≤ 50 | 500 to 1000 |  |
